System: 354836-022-R-J1-PDC multicell spheroid viability
Test: Anticancer human tumor 354836-022-R-J1-PDC patient-derived head and neck squamous cell carcinoma cell line growth inhibition [PI3K]
Conditions: for IC50: curve of first compound; for viability, T/C: stronger effect = lower value
Summary of the method: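 Multi-cell spheroids combine tumor cells with HUVEC and human MSCs, treated with targeted agents alone or with inavolisib, alpelisib, duvelisib or copanlisib. Concentrations fall in half-log steps from at or near clinical Cmax, or from 10 microM where Cmax is unknown; viability read-out.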

[1] = second compound 0.00316 µM, first compound 0.0316 µM
[2] = second compound 0.00316 µM, first compound 0.1 µM
[3] = second compound 0.00316 µM, first compound 0.316 µM
[4] = second compound 0.00316 µM, first compound 1 µM
[5] = second compound 0.00316 µM, first compound 3.16 µM
[6] = second compound 0.00316 µM, first compound 10 µM
[7] = second compound 0.01 µM, first compound 0.0316 µM
[8] = second compound 0.01 µM, first compound 0.1 µM
[9] = second compound 0.01 µM, first compound 0.316 µM
[10] = second compound 0.01 µM, first compound 1 µM
[11] = second compound 0.01 µM, first compound 3.16 µM
[12] = second compound 0.01 µM, first compound 10 µM
[13] = second compound 0.0316 µM, first compound 0.0316 µM
[14] = second compound 0.0316 µM, first compound 0.1 µM
[15] = second compound 0.0316 µM, first compound 0.316 µM
[16] = second compound 0.0316 µM, first compound 1 µM
[17] = second compound 0.0316 µM, first compound 3.16 µM
[18] = second compound 0.0316 µM, first compound 10 µM
[19] = second compound 0.1 µM, first compound 0.0316 µM
[20] = second compound 0.1 µM, first compound 0.1 µM
[21] = second compound 0.1 µM, first compound 0.316 µM
[22] = second compound 0.1 µM, first compound 1 µM
[23] = second compound 0.1 µM, first compound 3.16 µM
[24] = second compound 0.1 µM, first compound 10 µM
[25] = second compound 0.316 µM, first compound 0.0316 µM
[26] = second compound 0.316 µM, first compound 0.1 µM
[27] = second compound 0.316 µM, first compound 0.316 µM
[28] = second compound 0.316 µM, first compound 1 µM
[29] = second compound 0.316 µM, first compound 3.16 µM
[30] = second compound 0.316 µM, first compound 10 µM
[31] = second compound 1 µM, first compound 0.0316 µM
[32] = second compound 1 µM, first compound 0.1 µM
[33] = second compound 1 µM, first compound 0.316 µM
[34] = second compound 1 µM, first compound 1 µM
[35] = second compound 1 µM, first compound 3.16 µM
[36] = second compound 1 µM, first compound 10 µM
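Also: spheroids exposed to agents for seven days before the viability read.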

Structure (SMILES): C=CC(=O)N1CCN(c2nc(=O)n(-c3c(C)ccnc3C(C)C)c3nc(-c4c(O)cccc4F)c(F)cc23)C(C)C1 (stereo not drawn) + CC(Nc1ccc2c(c1)OCCn1cc(N3C(=O)OCC3C(F)F)nc1-2)C(N)=O
- IC50 (second compound 0.00316 µM): > 10000 nM
- IC50 (second compound 0.01 µM): > 10000 nM
- IC50 (second compound 0.0316 µM): > 10000 nM
- IC50 (second compound 0.1 µM): > 10000 nM
- IC50 (second compound 0.316 µM): > 10000 nM
- IC50 (second compound 1 µM): > 10000 nM
- viability, T/C [1]: 100%
- viability, T/C [2]: 81.7%
- viability, T/C [3]: 98.7%
- viability, T/C [4]: 94.5%
- viability, T/C [5]: 106%
- viability, T/C [6]: 113%
- viability, T/C [7]: 101%
- viability, T/C [8]: 91.8%
- viability, T/C [9]: 93.1%
- viability, T/C [10]: 95.3%
- viability, T/C [11]: 103%
- viability, T/C [12]: 91%
- viability, T/C [13]: 95.7%
- viability, T/C [14]: 112%
- viability, T/C [15]: 86.9%
- viability, T/C [16]: 111%
- viability, T/C [17]: 115%
- viability, T/C [18]: 92.2%
- viability, T/C [19]: 77.9%
- viability, T/C [20]: 94.3%
- viability, T/C [21]: 95.2%
- viability, T/C [22]: 124%
- viability, T/C [23]: 88.5%
- viability, T/C [24]: 89.7%
- viability, T/C [25]: 68.2%
- viability, T/C [26]: 75.9%
- viability, T/C [27]: 81.5%
- viability, T/C [28]: 68.1%
- viability, T/C [29]: 87.7%
- viability, T/C [30]: 70.6%
- viability, T/C [31]: 63.9%
- viability, T/C [32]: 63.2%
- viability, T/C [33]: 65.1%
- viability, T/C [34]: 74%
- viability, T/C [35]: 68.3%
- viability, T/C [36]: 55.6%

Structure (SMILES): CCN1CCN(Cc2ccc(Nc3ncc(F)c(-c4cc(F)c5nc(C)n(C(C)C)c5c4)n3)nc2)CC1 + CC(Nc1ccc2c(c1)OCCn1cc(N3C(=O)OCC3C(F)F)nc1-2)C(N)=O
- IC50 (second compound 0.00316 µM): > 1000 nM
- IC50 (second compound 0.01 µM): > 1000 nM
- IC50 (second compound 0.0316 µM): > 1000 nM
- IC50 (second compound 0.1 µM): 713 nM
- IC50 (second compound 0.316 µM): 425 nM
- IC50 (second compound 1 µM): 162 nM
- viability, T/C (second compound 0.00316 µM, first compound 0.00316 µM): 99.9%
- viability, T/C (second compound 0.00316 µM, first compound 0.01 µM): 99.6%
- viability, T/C [1]: 93.1%
- viability, T/C [2]: 105%
- viability, T/C [3]: 104%
- viability, T/C [4]: 67.5%
- viability, T/C (second compound 0.01 µM, first compound 0.00316 µM): 100%
- viability, T/C (second compound 0.01 µM, first compound 0.01 µM): 97.8%
- viability, T/C [7]: 116%
- viability, T/C [8]: 85%
- viability, T/C [9]: 89.2%
- viability, T/C [10]: 69.6%
- viability, T/C (second compound 0.0316 µM, first compound 0.00316 µM): 95.8%
- viability, T/C (second compound 0.0316 µM, first compound 0.01 µM): 80.7%
- viability, T/C [13]: 84.7%
- viability, T/C [14]: 101%
- viability, T/C [15]: 85.7%
- viability, T/C [16]: 57.5%
- viability, T/C (second compound 0.1 µM, first compound 0.00316 µM): 89.2%
- viability, T/C (second compound 0.1 µM, first compound 0.01 µM): 82.9%
- viability, T/C [19]: 75.6%
- viability, T/C [20]: 94.1%
- viability, T/C [21]: 75.9%
- viability, T/C [22]: 39.2%
- viability, T/C (second compound 0.316 µM, first compound 0.00316 µM): 65%
- viability, T/C (second compound 0.316 µM, first compound 0.01 µM): 79.3%
- viability, T/C [25]: 67.5%
- viability, T/C [26]: 62.1%
- viability, T/C [27]: 61.5%
- viability, T/C [28]: 22.9%
- viability, T/C (second compound 1 µM, first compound 0.00316 µM): 64%
- viability, T/C (second compound 1 µM, first compound 0.01 µM): 54.1%
- viability, T/C [31]: 67.6%
- viability, T/C [32]: 47.5%
- viability, T/C [33]: 46.4%
- viability, T/C [34]: 14.2%

Structure (SMILES): Cn1ncc(Cl)c1-c1cc(C(=O)NC(CN)Cc2cccc(F)c2)sc1Cl (stereo not drawn) + CC(Nc1ccc2c(c1)OCCn1cc(N3C(=O)OCC3C(F)F)nc1-2)C(N)=O
- IC50 (second compound 0.00316 µM): 85.2 nM
- IC50 (second compound 0.01 µM): 92.4 nM
- IC50 (second compound 0.0316 µM): 105 nM
- IC50 (second compound 0.1 µM): 129 nM
- IC50 (second compound 0.316 µM): 92.9 nM
- IC50 (second compound 1 µM): 37.2 nM
- viability, T/C [1]: 64.3%
- viability, T/C [2]: 48.1%
- viability, T/C [3]: 33.3%
- viability, T/C [4]: 20.1%
- viability, T/C [5]: 19.9%
- viability, T/C [6]: 5.31%
- viability, T/C [7]: 75.2%
- viability, T/C [8]: 47.5%
- viability, T/C [9]: 30.2%
- viability, T/C [10]: 18.9%
- viability, T/C [11]: 18.3%
- viability, T/C [12]: 5.41%
- viability, T/C [13]: 66.6%
- viability, T/C [14]: 56.4%
- viability, T/C [15]: 27.3%
- viability, T/C [16]: 23.9%
- viability, T/C [17]: 16.9%
- viability, T/C [18]: 3.21%
- viability, T/C [19]: 83.1%
- viability, T/C [20]: 56%
- viability, T/C [21]: 29.9%
- viability, T/C [22]: 24.2%
- viability, T/C [23]: 15.9%
- viability, T/C [24]: 4.25%
- viability, T/C [25]: 71%
- viability, T/C [26]: 48.8%
- viability, T/C [27]: 30.7%
- viability, T/C [28]: 20.5%
- viability, T/C [29]: 12.9%
- viability, T/C [30]: 5.46%
- viability, T/C [31]: 50.6%
- viability, T/C [32]: 45.2%
- viability, T/C [33]: 32.2%
- viability, T/C [34]: 25%
- viability, T/C [35]: 13%
- viability, T/C [36]: 4.09%

Structure (SMILES): Cn1nccc1Nc1nccc(-c2ccn(C(CO)c3ccc(Cl)c(F)c3)c(=O)c2)n1 (stereo not drawn) + CC(Nc1ccc2c(c1)OCCn1cc(N3C(=O)OCC3C(F)F)nc1-2)C(N)=O
- IC50 (second compound 0.00316 µM): > 10000 nM
- IC50 (second compound 0.01 µM): > 10000 nM
- IC50 (second compound 0.0316 µM): > 10000 nM
- IC50 (second compound 0.1 µM): > 10000 nM
- IC50 (second compound 0.316 µM): > 10000 nM
- IC50 (second compound 1 µM): > 10000 nM
- viability, T/C [1]: 91.2%
- viability, T/C [2]: 86.8%
- viability, T/C [3]: 112%
- viability, T/C [4]: 92.6%
- viability, T/C [5]: 93.5%
- viability, T/C [6]: 88.1%
- viability, T/C [7]: 105%
- viability, T/C [8]: 92.5%
- viability, T/C [9]: 101%
- viability, T/C [10]: 95.1%
- viability, T/C [11]: 101%
- viability, T/C [12]: 88.5%
- viability, T/C [13]: 103%
- viability, T/C [14]: 92.4%
- viability, T/C [15]: 88.7%
- viability, T/C [16]: 88.6%
- viability, T/C [17]: 127%
- viability, T/C [18]: 98.2%
- viability, T/C [19]: 74.2%
- viability, T/C [20]: 100%
- viability, T/C [21]: 94.6%
- viability, T/C [22]: 88.7%
- viability, T/C [23]: 100%
- viability, T/C [24]: 98.4%
- viability, T/C [25]: 59.9%
- viability, T/C [26]: 73.3%
- viability, T/C [27]: 75.2%
- viability, T/C [28]: 72%
- viability, T/C [29]: 71.5%
- viability, T/C [30]: 71.8%
- viability, T/C [31]: 58.8%
- viability, T/C [32]: 50.1%
- viability, T/C [33]: 55.4%
- viability, T/C [34]: 62.4%
- viability, T/C [35]: 61.4%
- viability, T/C [36]: 41.4%

Reference: PubChem BioAssay AID1963981 (Molecular Pharmacology Branch, DTP, NCI, 2024)
